Article PMC6193536 (Bioorganic & medicinal chemistry letters, 2018)
Read-outs that look alike come from different tables or passages of the source.

Columns and labels:
Plasmodium falciparum [1] = assay: hypoxanthine incorporation assay; type: cell-based
PfPKG [2] = target: T1, PfPKG (Plasmodium falciparum, UniProt Q8I719); conditions: data unpublished
PfPKG [3] = target: T1, PfPKG; conditions: cited from earlier work
Plasmodium falciparum [4] = conditions: cited from earlier work

T1 sequence (Q8I719 whole entry): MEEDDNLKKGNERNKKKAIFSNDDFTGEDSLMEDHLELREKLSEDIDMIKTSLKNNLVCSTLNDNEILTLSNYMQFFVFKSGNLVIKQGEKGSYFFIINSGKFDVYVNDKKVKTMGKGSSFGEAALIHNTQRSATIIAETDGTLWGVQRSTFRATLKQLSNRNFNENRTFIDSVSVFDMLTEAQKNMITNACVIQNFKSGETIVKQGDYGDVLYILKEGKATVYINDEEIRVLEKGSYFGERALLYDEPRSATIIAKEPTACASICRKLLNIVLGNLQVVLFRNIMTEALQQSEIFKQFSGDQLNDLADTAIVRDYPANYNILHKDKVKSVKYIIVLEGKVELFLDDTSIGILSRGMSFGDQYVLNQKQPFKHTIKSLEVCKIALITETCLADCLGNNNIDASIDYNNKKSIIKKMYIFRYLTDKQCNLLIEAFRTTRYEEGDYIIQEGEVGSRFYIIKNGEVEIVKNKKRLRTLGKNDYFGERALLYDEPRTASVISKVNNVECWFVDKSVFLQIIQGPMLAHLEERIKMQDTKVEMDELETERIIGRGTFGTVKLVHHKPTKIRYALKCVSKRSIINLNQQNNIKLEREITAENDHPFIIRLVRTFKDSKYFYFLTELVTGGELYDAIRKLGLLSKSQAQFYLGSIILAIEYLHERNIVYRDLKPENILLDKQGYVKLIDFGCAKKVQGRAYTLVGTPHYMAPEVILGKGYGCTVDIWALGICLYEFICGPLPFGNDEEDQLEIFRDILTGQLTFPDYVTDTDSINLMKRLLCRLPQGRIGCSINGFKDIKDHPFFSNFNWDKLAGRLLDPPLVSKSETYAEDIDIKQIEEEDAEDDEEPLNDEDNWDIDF

Q: For CN1CCC(c2cc(-c3ccncc3)c(-c3ccc(F)cc3)[nH]2)CC1 [compound 1], which “potency in HXI cell viability assay” value (Plasmodium falciparum [1]; data unpublished) is on record?
A: moderate potency

Q: And the “potency in biochemical assay against PfPKG” value (PfPKG [2])?
A: low nanomolar potencies

Q: What about the “kinase selectivity (other human kinases)” value (panel of human kinases) of the same compound?
A: poor kinase selectivity

Q: Which results are given for CN(C)Cc1ccn2c(-c3ccnc(N)n3)c(-c3ccc(F)cc3)nc2c1 [compound 2]?
A: potency in biochemical assay against PfPKG (PfPKG [3]): low nanomolar potencies; potency in HXI cell viability assay (Plasmodium falciparum [4]): moderate potency

Q: For CN1CCC(c2nc(-c3ccc(F)c(NS(C)(=O)=O)c3)c(-c3ccnc(NCC4CC4)n3)s2)CC1 [compound 23], which “improvement in cellular potency over compound 1” value (Plasmodium falciparum [1]; versus compound 1) is on record?
A: 4 fold
